The record followed here is PMC6874179, “Development of Macrocycle Kinase Inhibitors for ALK2 Using Fibrodysplasia Ossificans Progressiva‐Derived Endothelial Cells” (JBMR Plus, 2019).

One data set concerns the target T1, NEK2 (Homo sapiens, UniProt P51955).
T1 construct: purchased DiscoverX
The data set is described as follows: Proqinase Kinase profiling. It counts as biochemical. The following applies: read-out: % inhibition at 100nM.

Data set [1] in a line: Microsomal incubations, rLM. It counts as in vitro ADME. The following applies: rat, liver microsomes, pH 7.4; microsomes 0.5 mg/ml, 0.5 μM compound; read-out: Metabolic clearance rLM. A general note: Liver microsomes are a subcellular fraction often used to study metabolism.
The next data set concerns the target T2, MAP3K1 (Homo sapiens, UniProt Q13233).
T2 construct: purchased DiscoverX
The data set is described as follows: Proqinase Kinase profiling. It counts as biochemical. To be noted: read-out: % inhibition at 100nM.

A further data set concerns FOP ECFCs. Nature of the data set: Smad1/5 activation and ID-1/ID-3 expression in FOP ECFCs. Format: cell-based, human. To be noted: compound 0.5μM; for Effect on BMP-6-induced downstream signaling: BMP-6 50 ng/mL; for Effect on activin A-induced activation of Smad1/5 and gene targets ID-1 and ID-3: activin A 50 ng/mL. The protocol:
Total RNA extraction was performed using NucleoSpin RNA II (Machery Nagel, Düren, Germany). There were 500 ng of RNA retro‐transcribed using RevertAid First Strand cDNA Synthesis Kits (Fisher Scientific, Landsmeer, The Netherlands), and real‐time reverse transcription‐PCR experiments were performed using SYBR Green (Bio‐Rad, Veenendaal, The Netherlands) and a Bio‐Rad CFX Connect device. A list of the oligonucleotides used can be found as online supplemental data.
Cells were incubated for 21 days in chondrogenic medium containing BMP‐6 or activin A (50 ng/mL) and LDN‐193189, OD36, or OD52 at 0.5μM, prior to Alcian Blue staining. (B) Quantification of Fig. 6 A by absorbance, after solubilization with guanidine hydrochloride. (C) Chondrogenic gene expression analysis of collagen 2 (Col2), Sox9, Matrix metalloproteinase 13 (Mmp13), and collagen X (Col X) in ATDC5 cells corresponding to (A). (D) Western blot of a representative clone of FOP endothelial colony‐forming cells (ECFCs) incubated with LDN‐193189, OD36, or OD52 (0.5μM) prior to stimulation with BMP‐6 (50 ng/mL) or activin A (50 ng/mL). (E) Expression of the BMP target genes ID1 and ID3 by qPCR in FOP ECFCs stimulated with BMP‐6 (50 ng/mL) or activin A (50 ng/mL) in the presence of the indicated compounds at 0.5μM. (F) Alizarin Red solution staining on a representative clone of FOP ECFCs incubated under osteogenic conditions with BMP‐6 (50 ng/mL) or activin A (50 ng/mL) and the indicated compounds. (G) Quantification of Fig. 6 F by absorbance, after solubilization with cetylpyridinium. (H) Osteogenic genes Collagen 1 alpha 1 (Col1a1), Runx2, and osterix (Osx) expression in a representative clone of FOP ECFCs incubated under osteogenic conditions with BMP‐6 (50 ng/mL) or activin A (50 ng/mL) and LDN‐193189, OD36, or OD52 (0.5 μM). *p < 0.05, **p < 0.01, ***p < 0.001.
(§1) Cells were seeded into 6-well plates and cultured till they reached confluence. Next, cells were stimulated as indicated and then washed with cold PBS. Lysates were prepared using 2x Sample buffer (10% SDS, 62.5 mM Tris-HCl pH 6.8, 0.002 % Bromophenol Blue, 0.7135 M (5%) β-mercaptoethanol, 10 % glycerol) and boiled for 5 minutes before loading. Electrophoresis was performed in 10% SDS/polyacrylamide gels. Separated proteins were transferred to nitrocellulose membranes (0.5 A at 100 V; in ice) for 1 hour. Blots were blocked in Tris-Buffered Saline solution containing 0.1% Tween 20 and 5% non-fat dry milk overnight at 4 °C, and immune-detection of specific proteins was carried out with primary antibodies (see above) followed by horseradish peroxidase-conjugated anti-mouse or anti-rabbit (GE Healthcare, Eindhoven, The Netherlands) secondary antibodies using an ECL system (Fisher Scientific, Landsmeer, The Netherlands).

The target in another data set is T3, RET_M918T (Homo sapiens, UniProt P07949, M918T).
T3 construct: purchased DiscoverX
T3 sequence (P07949 29-1114 M918T): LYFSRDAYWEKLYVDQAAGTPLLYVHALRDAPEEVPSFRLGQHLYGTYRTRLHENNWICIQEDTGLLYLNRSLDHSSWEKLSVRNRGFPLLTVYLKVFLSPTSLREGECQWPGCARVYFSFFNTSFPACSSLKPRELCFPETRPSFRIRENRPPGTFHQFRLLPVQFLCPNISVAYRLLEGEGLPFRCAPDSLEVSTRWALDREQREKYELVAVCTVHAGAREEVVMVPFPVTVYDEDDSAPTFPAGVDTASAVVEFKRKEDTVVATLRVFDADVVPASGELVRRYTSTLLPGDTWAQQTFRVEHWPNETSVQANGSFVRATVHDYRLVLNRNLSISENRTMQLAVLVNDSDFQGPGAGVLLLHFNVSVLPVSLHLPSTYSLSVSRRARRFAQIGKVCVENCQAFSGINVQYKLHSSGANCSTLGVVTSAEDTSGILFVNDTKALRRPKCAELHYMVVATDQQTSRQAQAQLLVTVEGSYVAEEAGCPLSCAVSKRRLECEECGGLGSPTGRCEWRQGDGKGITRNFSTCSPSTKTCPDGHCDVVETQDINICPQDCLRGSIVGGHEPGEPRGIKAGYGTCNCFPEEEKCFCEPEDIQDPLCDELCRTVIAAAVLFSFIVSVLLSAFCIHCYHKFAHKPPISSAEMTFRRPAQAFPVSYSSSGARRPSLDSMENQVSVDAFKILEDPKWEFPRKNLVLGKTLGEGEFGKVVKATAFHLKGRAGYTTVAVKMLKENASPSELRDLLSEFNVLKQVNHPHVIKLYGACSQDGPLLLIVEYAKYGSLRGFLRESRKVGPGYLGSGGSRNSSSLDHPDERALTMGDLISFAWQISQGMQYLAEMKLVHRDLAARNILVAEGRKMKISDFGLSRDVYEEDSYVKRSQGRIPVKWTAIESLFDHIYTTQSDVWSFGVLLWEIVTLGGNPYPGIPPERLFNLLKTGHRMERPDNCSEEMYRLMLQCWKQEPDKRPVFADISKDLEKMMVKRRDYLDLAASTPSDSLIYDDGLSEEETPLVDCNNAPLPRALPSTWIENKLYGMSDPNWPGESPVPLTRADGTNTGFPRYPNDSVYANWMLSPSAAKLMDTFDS
The data set is described as follows: Proqinase Kinase profiling. Format: biochemical. The following applies: read-out: % inhibition at 100nM.

The next data set has as its system p-Smad1/5 in 2H11 ECs. The data set is described as follows: Western blot of p-Smad1/5 in 2H11 endothelial cells. It counts as cell-based, mouse. To be noted: 2H11 cells, compound 0.5μM; for Inhibition of BMP-6-induced p-Smad1/5: BMP-6 50 ng/mL; for Inhibition of BMP-9-induced p-Smad1/5: BMP-9 1 ng/mL. The protocol:
Compounds were added for 16 hours at 0.5μM before luciferase activity was measured.
as §1, with “Lysates were prepared using 2x Sample buffer (10% SDS, 62.5 mM Tris-HCl pH 6.8, 0.002 % Bromophenol Blue, 0.7135 M (5%) β-mercaptoethanol, 10 % glycerol) and boiled for 5 minutes before loading.” left out
(Immunoblotting shows a protein as a band on a membrane.)

The next data set deals with T4, ACVR2A (Homo sapiens, UniProt P27037).
T4 construct: T7 phage fusion (or DNA tag for qPCR if made in HEK-293); purchased DiscoverX; host or cells: E. coli (T7 phage) or HEK-293
T4 sequence (P27037 20-513): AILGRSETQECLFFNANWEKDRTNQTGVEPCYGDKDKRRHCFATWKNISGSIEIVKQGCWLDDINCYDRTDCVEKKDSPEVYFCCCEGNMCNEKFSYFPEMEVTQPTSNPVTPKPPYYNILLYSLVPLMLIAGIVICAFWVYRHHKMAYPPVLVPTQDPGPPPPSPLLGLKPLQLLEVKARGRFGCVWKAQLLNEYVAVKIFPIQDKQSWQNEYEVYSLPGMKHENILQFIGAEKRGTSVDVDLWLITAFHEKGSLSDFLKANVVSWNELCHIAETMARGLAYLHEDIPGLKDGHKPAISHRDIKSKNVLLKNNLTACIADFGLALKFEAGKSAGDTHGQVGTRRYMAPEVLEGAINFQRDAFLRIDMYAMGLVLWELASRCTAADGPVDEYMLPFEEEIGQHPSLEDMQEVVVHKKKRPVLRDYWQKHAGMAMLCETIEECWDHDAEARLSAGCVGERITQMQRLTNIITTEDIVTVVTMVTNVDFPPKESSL
Nature of the data set: DiscoverX Kd determination. It counts as binding. As for the experimental part:
(§2) DiscoverX Kd determination: For most assays, kinase-tagged T7 phage strains were prepared in an E. coli host derived from the BL21 strain. E. coli were grown to log-phase and infected with T7 phage and incubated with shaking at 32°C until lysis. The lysates were centrifuged and filtered to remove cell debris. The remaining kinases were produced in HEK-293 cells and subsequently tagged with DNA for qPCR detection. Streptavidin-coated magnetic beads were treated with biotinylated small molecule ligands for 30 minutes at room temperature to generate affinity resins for kinase assays. The liganded beads were blocked with excess biotin and washed with blocking buffer (SeaBlock (Pierce), 1% BSA, 0.05% Tween 20, 1 mM DTT) to remove unbound ligand and to reduce non-specific binding. […] Test compounds were prepared as 111X stocks in 100% DMSO. Kds were determined using an 11-point 3-fold compound dilution series with three DMSO control points. […] The compounds were then diluted directly into the assays such that the final concentration of DMSO was 0.9%. All reactions performed in polypropylene 384-well plate. Each was a final volume of 0.02 ml. […] The kinase concentration in the eluates was measured by qPCR. An 11-point 3-fold serial dilution of each test compound was prepared in 100% DMSO at 100x final test concentration and subsequently diluted to 1x in the assay (final DMSO concentration = 1%). Most Kds were determined using a compound top concentration = 30.000 nM. […] Binding constants (Kds) were calculated with a standard dose-response curve using the Hill equation: Response = Background + Signal – Background 1 + (KdHill Slope / DoseHill Slope). The Hill Slope was set to -1. Curves were fitted using a non-linear least square fit with the Levenberg-Marquardt algorithm.

The next data set has as its target T5, ACVR2B (Homo sapiens, UniProt Q13705).
T5 construct: T7 phage fusion (or DNA tag for qPCR if made in HEK-293); purchased DiscoverX; host or cells: E. coli (T7 phage) or HEK-293
The data set is described as follows: DiscoverX Kd determination. Format: binding. As for the experimental part:
as §2

The target in the next data set is T6, FLT3 (Homo sapiens, UniProt P36888).
T6 construct: purchased DiscoverX
T6 sequence (P36888 27-993): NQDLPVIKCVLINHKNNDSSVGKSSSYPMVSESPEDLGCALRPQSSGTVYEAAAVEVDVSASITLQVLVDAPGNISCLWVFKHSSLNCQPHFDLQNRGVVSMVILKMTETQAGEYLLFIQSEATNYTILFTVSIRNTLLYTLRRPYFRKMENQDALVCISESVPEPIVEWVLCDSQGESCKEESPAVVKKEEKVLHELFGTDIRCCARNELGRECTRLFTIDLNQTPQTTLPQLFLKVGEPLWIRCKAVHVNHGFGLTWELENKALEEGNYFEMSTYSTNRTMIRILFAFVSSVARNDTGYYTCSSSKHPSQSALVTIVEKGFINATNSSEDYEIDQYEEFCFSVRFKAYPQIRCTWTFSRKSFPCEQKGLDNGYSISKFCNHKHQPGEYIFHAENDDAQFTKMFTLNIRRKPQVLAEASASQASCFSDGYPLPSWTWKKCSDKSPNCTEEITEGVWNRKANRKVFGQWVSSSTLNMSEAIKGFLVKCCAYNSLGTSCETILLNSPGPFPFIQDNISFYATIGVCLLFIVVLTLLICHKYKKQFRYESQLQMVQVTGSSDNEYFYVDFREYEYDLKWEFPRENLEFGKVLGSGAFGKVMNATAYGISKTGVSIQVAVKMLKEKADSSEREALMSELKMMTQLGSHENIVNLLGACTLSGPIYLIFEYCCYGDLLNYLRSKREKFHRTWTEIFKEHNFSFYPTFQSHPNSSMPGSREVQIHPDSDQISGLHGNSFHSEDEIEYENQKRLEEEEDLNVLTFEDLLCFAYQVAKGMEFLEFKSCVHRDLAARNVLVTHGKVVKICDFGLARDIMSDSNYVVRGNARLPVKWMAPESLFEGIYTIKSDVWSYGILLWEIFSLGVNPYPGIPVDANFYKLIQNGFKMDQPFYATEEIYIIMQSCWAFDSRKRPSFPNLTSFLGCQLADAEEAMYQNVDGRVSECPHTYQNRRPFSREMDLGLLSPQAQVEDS
Nature of the data set: Proqinase Kinase profiling. It counts as biochemical. To be noted: read-out: % inhibition at 100nM.

In general, inhibition refers to the drop in the measured response relative to a control, in per cent. By Kd is commonly meant a measure of binding affinity in units of concentration. Low readings indicate a tighter complex, high ones a looser complex.

T5 sequence (Q13705 19-512): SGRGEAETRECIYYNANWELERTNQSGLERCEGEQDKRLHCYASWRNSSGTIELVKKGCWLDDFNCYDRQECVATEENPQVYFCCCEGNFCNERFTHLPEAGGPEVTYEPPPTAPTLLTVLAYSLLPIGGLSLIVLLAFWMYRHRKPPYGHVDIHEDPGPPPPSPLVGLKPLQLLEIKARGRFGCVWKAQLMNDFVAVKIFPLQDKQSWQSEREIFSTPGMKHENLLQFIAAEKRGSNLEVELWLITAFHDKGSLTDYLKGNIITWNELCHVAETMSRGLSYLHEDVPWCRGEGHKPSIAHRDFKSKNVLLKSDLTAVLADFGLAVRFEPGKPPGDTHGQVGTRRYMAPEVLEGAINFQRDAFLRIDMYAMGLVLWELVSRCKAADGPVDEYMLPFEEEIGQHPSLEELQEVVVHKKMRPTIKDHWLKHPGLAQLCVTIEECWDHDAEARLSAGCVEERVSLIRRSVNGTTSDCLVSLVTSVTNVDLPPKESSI
T1 sequence (P51955 whole entry): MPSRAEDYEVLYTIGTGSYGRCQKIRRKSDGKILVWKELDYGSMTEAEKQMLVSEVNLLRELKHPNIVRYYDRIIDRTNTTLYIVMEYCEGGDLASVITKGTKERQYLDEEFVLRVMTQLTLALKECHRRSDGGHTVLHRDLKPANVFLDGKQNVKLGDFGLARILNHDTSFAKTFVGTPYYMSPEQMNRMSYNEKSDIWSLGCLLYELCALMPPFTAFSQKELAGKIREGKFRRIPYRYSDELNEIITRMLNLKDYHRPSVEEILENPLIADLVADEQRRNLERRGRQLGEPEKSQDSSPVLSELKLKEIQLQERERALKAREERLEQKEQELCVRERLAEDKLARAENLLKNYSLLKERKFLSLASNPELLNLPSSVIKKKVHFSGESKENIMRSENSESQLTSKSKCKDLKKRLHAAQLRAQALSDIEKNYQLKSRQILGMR
T2 sequence (Q13233 whole entry): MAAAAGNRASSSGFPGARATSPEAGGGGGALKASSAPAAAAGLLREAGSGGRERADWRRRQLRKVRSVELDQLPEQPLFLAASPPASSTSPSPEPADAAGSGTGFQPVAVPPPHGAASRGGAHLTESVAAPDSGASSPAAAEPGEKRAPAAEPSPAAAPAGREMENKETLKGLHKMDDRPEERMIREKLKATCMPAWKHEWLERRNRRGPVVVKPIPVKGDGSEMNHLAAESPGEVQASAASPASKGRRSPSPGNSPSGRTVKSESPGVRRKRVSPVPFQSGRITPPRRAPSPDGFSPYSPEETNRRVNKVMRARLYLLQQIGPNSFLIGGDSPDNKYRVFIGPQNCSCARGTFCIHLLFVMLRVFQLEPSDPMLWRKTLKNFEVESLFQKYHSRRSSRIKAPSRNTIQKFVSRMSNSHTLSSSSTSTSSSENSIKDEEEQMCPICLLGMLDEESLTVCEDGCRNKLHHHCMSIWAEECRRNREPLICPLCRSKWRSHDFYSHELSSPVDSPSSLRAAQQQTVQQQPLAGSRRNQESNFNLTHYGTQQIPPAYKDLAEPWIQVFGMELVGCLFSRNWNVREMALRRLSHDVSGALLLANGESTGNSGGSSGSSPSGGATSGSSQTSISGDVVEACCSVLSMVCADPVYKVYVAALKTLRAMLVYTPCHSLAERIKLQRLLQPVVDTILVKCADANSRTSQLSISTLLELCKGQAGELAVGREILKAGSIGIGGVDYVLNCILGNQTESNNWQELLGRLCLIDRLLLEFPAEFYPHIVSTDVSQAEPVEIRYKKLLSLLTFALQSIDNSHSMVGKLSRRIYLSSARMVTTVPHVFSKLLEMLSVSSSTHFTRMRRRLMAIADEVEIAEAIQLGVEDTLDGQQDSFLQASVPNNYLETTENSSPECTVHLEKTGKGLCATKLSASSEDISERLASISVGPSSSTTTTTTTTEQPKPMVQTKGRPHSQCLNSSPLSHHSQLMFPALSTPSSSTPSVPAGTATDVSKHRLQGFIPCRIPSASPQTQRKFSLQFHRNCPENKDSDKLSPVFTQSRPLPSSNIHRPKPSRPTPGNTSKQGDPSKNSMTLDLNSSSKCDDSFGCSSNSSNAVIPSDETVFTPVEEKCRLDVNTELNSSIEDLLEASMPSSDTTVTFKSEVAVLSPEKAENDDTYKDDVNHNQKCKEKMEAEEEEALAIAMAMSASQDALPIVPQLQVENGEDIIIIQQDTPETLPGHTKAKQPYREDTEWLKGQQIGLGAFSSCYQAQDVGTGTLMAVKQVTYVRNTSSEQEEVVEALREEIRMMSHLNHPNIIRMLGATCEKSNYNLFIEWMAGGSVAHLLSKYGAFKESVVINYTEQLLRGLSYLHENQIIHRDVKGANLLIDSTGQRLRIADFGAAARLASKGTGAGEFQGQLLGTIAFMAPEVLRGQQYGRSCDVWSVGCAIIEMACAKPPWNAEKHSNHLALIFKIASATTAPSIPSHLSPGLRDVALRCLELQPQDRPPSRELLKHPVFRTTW

Turning to `Clc1cc2cc(c1)-c1cnn3ccc(nc13)NCCOCCO2` [OD36], the inhibition at 0.1 µM on NEK2 came out at 0%; on MAP3K1, 8%; at RET_M918T, 33%; at FLT3, 6%. In data set [1], the microsomal CLint at 0.5 μM amounted to 74 µL/min/mg. In the data set on FOP ECFCs, the “Effect on BMP-6-induced downstream signaling” value is reported as “less effective”. Further, the “Effect on activin A-induced activation of Smad1/5 and gene targets ID-1 and ID-3” value (“Effect on activin A-induced activation” for short) in the data set with FOP ECFCs is “completely prevented”. In addition, the “Inhibition of BMP-6-induced p-Smad1/5” value in the data set on p-Smad1/5 in 2H11 ECs was “only inhibited BMP‐9‐induced p‐Smad1/5”. In the data set on p-Smad1/5 in 2H11 ECs, the “Inhibition of BMP-9-induced p-Smad1/5” value is given as “only inhibited BMP‐9‐induced p‐Smad1/5”. The Kd on ACVR2A was 3000 nM; on ACVR2B, 90 nM.
As for `Cc1cc2cc(c1)-c1cnn3ccc(nc13)NCCNC(=O)CCN(C)C2` [OD52], the inhibition at 0.1 µM was 3% on NEK2, -14% on MAP3K1, 33% on RET_M918T and -18% at FLT3. The microsomal CLint at 0.5 μM in data set [1] stood at 32 µL/min/mg. Besides, the “Effect on BMP-6-induced downstream signaling” value in the data set with FOP ECFCs is listed as “less effective”. Also, in the data set with FOP ECFCs, the “Effect on activin A-induced activation” value is “completely prevented”. For the same compound, in the data set with p-Smad1/5 in 2H11 ECs, the “Inhibition of BMP-6-induced p-Smad1/5” value was “only inhibited BMP‐9‐induced p‐Smad1/5”. Further, in the data set on p-Smad1/5 in 2H11 ECs, the “Inhibition of BMP-9-induced p-Smad1/5” value is listed as “only inhibited BMP‐9‐induced p‐Smad1/5”. The results for the Kd on ACVR2A and on ACVR2B were 590 nM and 220 nM, respectively.
Turning to `c1ccc2c(-c3cnn4cc(-c5ccc(N6CCNCC6)cc5)cnc34)ccnc2c1` [LDN-193189, reference compound], the microsomal CLint at 0.5 μM in data set [1] amounted to 185 µL/min/mg. The “Effect on activin A-induced activation” value in the data set with FOP ECFCs was “inhibited”. Besides, in the data set with p-Smad1/5 in 2H11 ECs, the “Inhibition of BMP-6-induced p-Smad1/5” value was “efficiently blocked” and the “Inhibition of BMP-9-induced p-Smad1/5” value was “efficiently blocked”. On ACVR2A, this compound yielded an equilibrium dissociation constant (Kd) of 12 nM. This compound displayed a Kd at ACVR2B of 11 nM.
